We go through eight molecules from patent publication US20210346461A1, “UTILIZATION OF ENDOGENOUS OUBAIN-REGULATING COMPOUNDS AND COMPOSITIONS THEREOF IN TREATMENT OF VASCULAR DISEASE” (priority 2020, published 2021).

Entries after “also recorded” stand apart in the source; their conditions may differ. Like-named read-outs stand apart in the source and are kept apart here.

For assay [1] the following is noted: cited from earlier work.
In assay [2] the test system is pregnant uterine arteries. In words: PGI2 release/response in pregnant uterine arteries. The assay is classed as cell-based. An excerpt:
FIG. 1A is a graph of laboratory data indicating PGI2 response in pregnant uterine arteries at various levels of Ouabain, wherein GABA is provided and Taurine is not—both without and with the provision of AII.
FIG. 1B is a graph of laboratory data indicating PGI2 response in pregnant uterine arteries at various levels of Ouabain, wherein both GABA and Taurine are provided—without and with the provision of AII.
FIG. 3A is a graph of laboratory data indicating PGI2 response in pregnant uterine arteries at various levels of GABA, wherein neither Taurine nor Ouabain is provided—without and with the provision of AII.
FIGS. 4A and 4B are graphs of laboratory data illustrating PGI2 response to taurine levels, GABA levels, and the provision of AII in pregnant uterine vessels with lower and higher Ouabain conditions, respectively.
FIGS. 5B is a graph of laboratory data illustrating PGI2 response in pregnant uterine arteries to the provision of various combinations of GABA, AII, and bicuculine.
(§1) FIG. 6 is a graph illustrating changes in PGI2 response versus basal levels, in both pregnant uterine vessels and pregnant systemic vessels, when the endothelium is removed.

In assay [3] the test system is intact nonpregnant systemic vessels. As to the kind of experiment: PGI2 response in intact nonpregnant systemic vessels (GABA dose response curves). To be noted: for PGI2 levels on addition of Nanomolar Ouabain: most concentrations of GABA. The assay is classed as cell-based, sheep. From the text:
FIG. 2A is a graph of laboratory data indicating PGI2 response in intact nonpregnant systemic vessels at various levels of GABA, wherein neither Taurine nor Ouabain is provided without and with the provision of AII.
FIG. 2B is a graph of laboratory data indicating PGI2 response in intact nonpregnant systemic vessels at various levels of GABA, wherein neither Taurine nor AII is provided—without and with the provision of Ouabain.
FIG. 2C is a graph of laboratory data indicating PGI2 response in intact nonpregnant systemic vessels at various levels of GABA, wherein AII is provided and Taurine is not—without and with the provision of Ouabain.
In FIGS. 2A-2C, GABA dose response curves of systemic vessels in 18 day postpartum sheep are provided. These vessels are believed to be representative of non-pregnant normotensive systemic vessels. […] Accordingly, it appears that at least one of Taurine or EO (or the like) may be needed to up-regulate the GABA-a receptor to augment PGI2 levels in the presence of nanomolar ouabain, or may at least be substantially helpful to increase PGI2 levels.

Assay [4] has as its system pregnant systemic arteries. In words: PGI2 release/response in pregnant systemic arteries. Type of assay: cell-based.
From the text: FIG. 3B is a graph of laboratory data indicating PGI2 response in pregnant systemic arteries at various levels of GABA, wherein neither Taurine nor Ouabain is provided—without and with the provision of AII.
FIGS. 5A is a graph of laboratory data illustrating PGI2 response in pregnant systemic arteries to the provision of various combinations of GABA, AII, and bicuculine.
as §1

Assay [5] relates to Cyclooxygenase (COX). To be noted: pharmacological blockade of COX; cited from earlier work.

On to `NCCCC(=O)O` [GABA], for which the blood pressure entry is given as “lower blood pressure” in assay [1] (eHTN humans) and “no effect to reduce blood pressure” in assay [1] (normotensive patients). Besides, the “PGI2 release with GABA and AII” value in assay [2] (FIG. 4A, low levels of taurine and low Ouabain) is “PGI2 release increased”. Moreover, the “PGI2 release on addition of GABA” value in assay [2] (FIG. 5B col. 2, GABA alone, no AII) is “insignificant effect on PGI2 release”; in assay [2] (together with AII), “increase PGI2; also recorded: increased PGI2 release”. In addition, in assay [3] (FIG. 2A/2B, 18 day postpartum sheep, no Ouabain, no Taurine), the “PGI2 response to GABA” value is listed as “no PGI2 response; also recorded: did not release significant PGI2”. The “PGI2 release on exposure to GABA” value in assay [4] (absence of AII) is reported as “increased PGI2 release; also recorded: responded to make PGI2”.

In the case of `C[C@@H]1O[C@@H](O[C@H]2C[C@@H](O)[C@]3(CO)[C@H]4[C@H](O)C[C@]5(C)[C@@H](C6=CC(=O)OC6)CC[C@]5(O)[C@@H]4CC[C@]3(O)C2)[C@H](O)[C@H](O)[C@H]1O` [Ouabain], the “PGI2 release with increase in Ouabain” value in assay [2] (FIGS. 4A/4B, Ouabain from −10M to −9M, low taurine, GABA approx. −7M) is “higher PGI2 release”. Moreover, the “PGI2 levels on addition of Nanomolar Ouabain” value is recorded as “significant increase in PGI2 levels” in assay [3] (FIG. 2B, without AII, no Taurine) and “significant increase in PGI2 levels” in assay [3] (FIG. 2C, with AII, no Taurine).

`NCCS(=O)(=O)O` [Taurine, 2-amino-ethane sulfonic acid]: the “overall PGI2 release with vs without Taurine” value in assay [2] (FIG. 1A vs 1B, regardless of AII presence) is listed as “overall PGI2 release appears higher without Taurine”.

Regarding `CC(=O)Oc1ccccc1C(=O)O` [aspirin], the resting blood pressure result in assay [5] was “does not substantially affect resting blood pressure”.

Turning to `CN1CCc2cc3c(cc2[C@H]1[C@@H]1OC(=O)c2c1ccc1c2OCO1)OCO3` [bicuculine], the “PGI2 release on blocking GABA-a receptors” value in assay [2] (FIG. 5B, also when additional GABA was added (col. 5)) is recorded as “substantially reduced PGI2 release”; in assay [4] (FIG. 5A), “reduced PGI2 release”.

As to `COc1ccc2c(c1)c(CC(=O)O)c(C)n2C(=O)c1ccc(Cl)cc1` [indomethacin], in assay [5], the resting blood pressure result is on record as “does not substantially affect resting blood pressure”.

As to `NCC(CP(=O)(O)O)c1ccc(Cl)cc1` (stereo not shown) [phaclofen], the “PGI2 release on GABA-b receptor blockade” value in assay [2] (experiments similar to FIGS. 5A/5B in pregnant vessels, data not shown) is reported as “did not affect PGI2 release”.

With Angiotensin II [AII], the “effect of presence or absence of AII on PGI2 release” value in assay [2] (FIG. 1A, GABA provided, without taurine, various levels of Ouabain) was “negligible effect on PGI2 release”. Besides, the “PGI2 release difference responsive to presence or absence of AII” value in assay [2] (FIG. 3A, GABA concentrations of −7M, −6M, −5M) is given as “no significant PGI2 release difference”. Further, the “PGI2 release with AII vs without AII” value in assay [2] (FIG. 3A, most levels of GABA, no Taurine, no Ouabain) is given as “more PGI2 is released”. The “PGI2 release on further addition of AII” value in assay [2] (FIG. 5B col. 4, bicuculine and GABA present) was “even further decreased PGI2”. For the same molecule, the “PGI2 release in the presence of AII” value was “reduced” in assay [2] (FIG. 6, endothelium removed) and “increased” in assay [4] (FIG. 6, endothelium removed). Also, the “PGI2 formation by presence or absence of Angiotensin II” value in assay [3] (FIG. 2A, exposed to GABA, without Taurine or EO) is given as “no significant PGI2 formation”. Also, the “PGI2 release on addition of AII” value in assay [3] (FIG. 2B vs 2C, in the presence of Ouabain, especially at higher GABA) was “substantially more PGI2 release”. The “relationship between PGI2 release and AII presence” value in assay [4] (FIG. 3B, various GABA levels, no Taurine, no Ouabain, compared with uterine circuit) is “substantially inverted”.
